{"source": "patent US20170234853A1", "about": "“METHOD FOR DETERMINING THE STRUCTURAL PROFILE OF A FIBRIN CLOT REFLECTING THE STABILITY THEREOF, IN ORDER TO PREDICT THE RISK OF BLEEDING, THROMBOSIS OR RETHROMBOSIS” (DIAGNOSTICA STAGO, priority 2014, published 2017)", "tested_on": "fibrin clot", "assay": "Structural profile of fibrin clot, Protocol C on STA-R with tissue factor and plasminogen activator (TF+t-PA)", "type": "biochemical", "protocol": "Protocol C (With t-PA, Method on STA-R® with Tissue Factor and Plasminogen Activator):\nTo 8 cuvettes of the STA-R® Evolution Expert Series automated device (Stago), are added, simultaneously by the instrument: • 200 μl of a sample of pure plasma, • 50 μl of a [TF 2 to 5 pM final concentration+PL 4 μM final concentration+tPA 0.1 to 0.2 μg/ml final concentration] mixture.\nThe automated device agitates by means of the arm, and carries out an incubation for 300 seconds at 37° C.\nIt then adds 50 μl of CaCl2 at a final concentration of 16.7 mM, and agitates by means of the needle of the initiating reagent.\nFinally, the automated device measures the number of protofibrils at the 2 wavelengths of 540 nm and 780 nm as a function of time for 30 minutes.\nTo 8 cuvettes of the STA-R® Evolution Expert Series automated device (Stago), are added, simultaneously by the instrument: • 200 μl of sample of pure plasma from 9 patients with normal hemostatis results, of a frozen plasma deficient in PAI-1, of 3 control plasmas at 0, 20 and 40 AU/ml of PAI-1, of a protein S-depleted plasma, of a TFPI-depleted plasma and of 3 plasmas with an overload of rivaroxaban at 0, 100 and 200 ng/ml, • 50 μl of a [TF 2 to 5 pM final concentration+PL 4 μM final concentration+t-PA 150 ng/ml] mixture.\nIt then adds 50 μl of CaCl2 at a final concentration of 16.7 mM, and agitates by means of the needle.", "data": [{"compound": "O=C(NC[C@H]1CN(c2ccc(N3CCOCC3=O)cc2)C(=O)O1)c1ccc(Cl)s1", "note": "[rivaroxaban]", "values": [{"measurement": "downward slope of the protofibril plateau", "setting": "plasma containing rivaroxaban, TF + t-PA 150 ng/ml", "value": "all the greater the faster the lysis"}, {"measurement": "protofibril plateau (duration), reflecting the stability of the clot", "setting": "plasmas with an overload of rivaroxaban at 0, 100 and 200 ng/ml, TF 2 to 5 pM, t-PA 150 ng/ml, 30 minutes", "value": "shortened proportionally to the concentration"}]}]}
